Measurements reported in patent US10881611B2, “Extracellular vesicles derived from osteoblastic lineage cells for therapeutic and diagnostic use” (Fondazione Città Della Speranza—Onlus, priority 2015, dated 2021).

Key:
[1] = test system: human osteosarcoma cell lines; test: Cell viability assay (MTT) of human osteosarcoma cell lines; assay type: cell-based
Protocol: Osteosarcoma cell lines sensitivity to anti-tumour drug Doxorubicin was evaluated by treating the cells with different Doxorubicin concentrations and carrying out cell viability assay with MTT at different times.
RANKL+ O-EVs were incubated with Doxorubicin (300 mg/ml) in vitro, then subjected to FACS. RANKL+ O-EV-associated doxorubicin confers red fluorescence to the nanoparticles, enabling FACS isolation thereof (FIG. 11).
Human osteosarcoma cell lines were treated with free Doxorubicin (235 ng, corresponding to a concentration of 1 micromole/litre in the medium) or with RANKL+ O-EV-associated Doxorubicin (100,000 FACS-isolated nanoparticles, containing 3.2 ng of Doxorubicin, corresponding to a concentration of 10 nanomole/litre in the medium). […] However, the treatment with anti-tumour drug-loaded RANKL+ O-EVs allowed to obtain this effect with a Doxorubicin dose 100-fold lower than the free drug (Table 1 below).

mature osteoclasts = test: Mature osteoclasts treated for 48 hours, TRAcP colouring; assay type: cell-based, mouse
From the text: Primary mouse osteoclasts are obtained by medullar macrophages differentiation isolated from CD1 long bones of age comprised within 7-10 days. The litter is kept and maintained according to the legal requirements, under the supervision of a veterinary responsible. When experimentally needed, the animals are sacrificed according to the laws and the long bones are explanted and cleaned from soft tissues. The bones are then submitted to mechanical disruption in order to free the bone marrow. The cells obtained are diluted in PBS and stratified 1:1 on Histopaque (Sigma-Aldrich), and centrifuged for 30′ at 450 g. The formed buffy coat is collected and washed with PBS. […] The osteoclastic phenotype is routinely assessed by biochemical assay to tartarate resistant acidic phosphatase positivity on a cell aliquot fixed in PFA/PBS (4% v/v). […]
The sensitivity of mature osteoclasts to the antitumor medicament doxorubicin has been evaluated by treating the cells with different doxorubicin concentrations (0.1-0.2-0.5-1-2-4 μM) and carrying out TRAcP colouring after fixing. […]
The sensitivity of mature osteoclasts to the medicament zolendronate has been assessed by treating the cells with different zolendronate concentrations (10^−8, 5×10^−8, 10^−7, 5×10^−7, 10^−6, 5×10^−6, 10^−5, 5×10^−5, 10^−4 M) and carrying out TRAcP colouring after fixing. […]

primary osteoblasts = test: FACS evaluation of the RANKL-positive O-EV fraction released by osteoblasts under parathyroid hormone stimulation; assay type: cell-based, murine; details: osteoblasts subjected to parathyroid hormone stimulation (10^−8 M human recombinant), p=0.037; without stimulation 53.06+3.47%
Protocol: Murine osteoblasts, obtained as previously described, are plated in 150 cm^2 culture flasks and grown in DMEM culture medium containing glutamine (5 mM), penicillin (1 mg/ml), streptomycin (2 mg/ml) and American fetal bovine serum (10% v/v) (FBS), and kept in incubator under 5% CO2. Upon reaching 70% confluence, cells were abundantly washed with PBS (3 times) to remove serum residues, and kept 24 hours in glutamine (5 mM)/penicillin (1 mg/ml), streptomycin (2 mg/ml) DMEM medium. […]
At the end of the procedure, the pellet obtained is resuspended in […] PBS and incubated with 10 microM CMFDA, at 37° C. for 30 min. The pellet is then brought to maximum volume with PBS in ultra-centrifuge tube, centrifuged at 30,000 RPM for 70 minutes at 4° C., and evaluated for quantity and quality by cytofluorimetric analysis. […]
FACScanto II (BD Biosciences) was resorted to for cytofluorimetric analysis. […] Moreover, the prescribed fluorescence channel compensations are carried out. […]
For evaluation of RANKL expression, CMFDA positive RANKL+ O-EV pellet is incubated for 30 min with mouse anti-RANKL antibody conjugated with Phycoerythrin (PE) (1:100) in PBS/BSA (1%). RANKL+ O-EVs are then FACS analysed and CMFDA/PE double-positive fraction is isolated for further evaluations. […]

[2] = human osteosarcoma cell lines, Table 1

## COc1cccc2c1C(=O)c1c(O)c3c(c(O)c1C2=O)C[C@@](O)(C(=O)CO)C[C@@H]3O[C@H]1C[C@H](N)[C@H](O)[C@H](C)O1 [Doxorubicin]
[1]; MTT at different times, osteosarcoma cell lines
  Doxorubicin concentration at which toxicity on tumour cells manifests: > 1 µmol/L
[1]; free Doxorubicin 235 ng, 1 micromole/litre in the medium
  death of the neoplastic cells: about 80%
[1]; [2]
  Doxorubicin amount giving death of about 80% of the neoplastic cells: 235 ng
  Doxorubicin concentration in the medium giving death of about 80% of the neoplastic cells: 1 µM
Mature osteoclasts; 0.1-4 μM tested
  doxorubicin concentration above which toxicity on mature osteoclasts shows: higher than 0.2 micromolar

## O=P(O)(O)C(O)(Cn1ccnc1)P(=O)(O)O [zolendronate]
Mature osteoclasts; 10^−8 to 10^−4 M tested
  zolendronate concentration above which toxicity on mature osteoclasts is shown: higher than 10^−7 M

B1: parathyroid hormone: human recombinant parathyroid hormone used at 10^−8 M to stimulate osteoblasts (protein, UniProt P01270 32-115, looked up)
Parathyroid hormone: SVSEIQLMHNLGKHLNSMERVEWLRKKLQDVHNFVALGAPLAPRDAGSQRPRKKEDNVLVESHEKSLGEADKADVNVLTKAKSQ
modifications: Parathyroid hormone
notes: human recombinant parathyroid hormone used at 10^−8 M to stimulate osteoblasts
Primary osteoblasts
  RANKL-positive O-EV subpopulation: 63.6±4.20%
